Laboratory results published in patent US10188613B2 (UNIVERSITY OF SOUTH FLORIDA, priority 1998, dated 2019).
Counter-ions that a name gives are not always drawn.

Experiments:
TS patients = details: Tourette's Syndrome patients; cited from earlier work
[1] = test system: Sprague-Dawley derived rats; test: Prevention of sensitized locomotor stimulant response to nicotine (Example 1); format: in vivo, rat; details: lower doses; nicotine test on day 9
[2] = test system: vagotomized, pithed and artificially respired rats; test: Pithed rat: plasma catecholamine responses, HPLC (Example 3); format: in vivo
Excerpt: The aim of the study was to determine whether mecamylamine and its stereoisomers have any effect on pressor responses and increases in plasma catecholamines in response to sympathetic nerve stimulation.
In the vagotomized, pithed and artificially respired rats (with oxygen mixed with air), the cardiovascular responses to test compounds measured were mean arterial blood pressure and heart rate; and the catecholamine responses measured were plasma norepinephrine, epinephrine and dopamine. These variables were measured in rats at rest and after electrical stimulation of sympathetic outflow at 0.2 Hz, 0.8 Hz, and 2.2 Hz for a one-minute duration (50 V, 1 msec pulse), and before and after administration of vehicle or a drug. Catecholamine assays were performed by specific HPLC testing. […] Statistical analysis were applied as appropriate.
Plasma catecholamine (CA) levels—norepinephrine (NE), epinephrine (EPI), and dopamine (DA)—were measured by HPLC with an electrochemical detector following administration of doses of all forms of mecamylamine.

Sprague-Dawley rats [3] = test: Mecamylamine blockade of nicotine-induced seizures (Example 2); format: in vivo, rat; details: for nicotine-induced seizures (percentage of rats that seized): 0.1, 0.3, 1.0 mg/kg s.c. 15 min before nicotine 3.6 mg/kg s.c.; for duration and severity of seizure vs saline comparison group / seizure latency vs saline control: 0.3 and 1.0 mg/kg s.c.
[4] = test system: vagotomized, pithed and artificially respired rats; test: Pithed rat: cardiovascular responses to sympathetic nerve stimulation (Example 3); format: in vivo; details: for stimulation-induced increases in MAP: 0.8 and 2.2 Hz stimulation, i.v. bolus; for increases in heart rate (δ HR) vs saline-treated rats: 2.2 Hz, highest dose (10 mg/kg i.v.)
Sprague-Dawley rats [5] = test: Effects of mecamylamine alone at high dose: seizures and spontaneous locomotor activity (Example 2); format: in vivo, rat; details: 10 mg/kg s.c., 30 min
Method: Male Sprague-Dawley rats (n=96) weighing between 200 and 250 grams upon arrival were used for this study (Harlan Laboratories, Ind.). The rats were housed two per cage, allowed one week to acclimate to animal facility before testing, kept on a reverse lighting schedule (7:00-19:00 lights off), and allowed free access to food and water. Testing occurred between 10:00 a.m. and 3:00 p.m. in a dimly lit room maintained at 22° C. The experimental procedures carried out in this study were in compliance with the Guide for the Care and Use of Laboratory Animals (National Research Council, 1996) and had the prior approval of the University of South Florida Institutional Animal Care and Use Committee.
Observation of seizures and locomotor recordings were carried out in clear acrylic 41×41×30 cm test chambers inside Digiscan activity monitors (Accuscan, Inc.). Each monitor employs two arrays of infrared photocell beams (8×8 photocells, model RXYZCM-8) to detect several parameters of the rat's movement both horizontally and vertically. Data were collected in 5-min bins during testing.
All drugs were dissolved in physiological saline, and nicotine was adjusted to pH with HCl to 7.40. […] All doses are expressed as the free base of the drug. […]
Data was analyzed using a one-way analysis of variance followed by Fishers least significance test for multiple comparisons. […]

[6] = target: hSERT (serotonin transporter) (Homo sapiens, UniProt P31645); test: [125I]RTI-55 binding, HEK293-hSERT membranes (Example 5); details: [125I]RTI-55 competition
human α4β2 receptors = target: T1, human α4β2 receptors (Homo sapiens, UniProt P17787+P43681); test: Two-electrode voltage clamp, Xenopus oocytes expressing α4β2 receptors (Example 4); format: cell-based
T1 construct: expressed in transfected cells; host or cells: Xenopus laevis oocytes, cRNA injection
Method: Voltage dependence and binding reversibility also were determined. Mature female Xenopus laevis African toads were used as a source of oocytes. After linearization and purification of cloned cDNAs, RNA transcripts were prepared in vitro using the appropriate mMessage mMachine® kit from Ambion Inc. (Austin Tex.). Harvested oocytes were treated with collagenase (Worthington Biochemical Corporation, Freehold N.J.) for two hr at room temperature in calcium-free solution. Subsequently stage 5 oocytes were isolated and injected with 50 nL each of a mixture of the appropriate subunit(s) cRNAs. Recordings were made about 1-7 days after cRNA injection.
For electrophysiology, oocyte recordings were made with an oocyte amplifier (e.g., Warner Instruments, Hamden, Conn., No. OC-725C) and RC-8 recording chamber. Oocytes were placed in the recording chamber with a total volume of about 0.6 ml and perfused at room temperature by frog Ringer's solution (115 mM NaCl, 2.5 mM KCl, 10 mM HEPES pH 7.3, and 1.8 mM CaCl2) containing 1 µM atropine to inhibit potential muscarinic responses. A Mariotte flask filled with Ringer's solution was used to maintain a constant hydrostatic pressure for drug delivery and washes. Drugs were diluted in perfusion solution and loaded into a 2 ml loop at the terminus of the perfusion line. A bypass of the drug-loading loop allowed bath solution to flow continuously while the drug loop was loaded. The drug application was synchronized with data acquisition by using a 2-way electronic valve. The rate of bath solution exchange and drug application was preferably about 6 ml/min. Current electrodes were filled with a solution containing 250 mMCsCl, 250 mM CsF and 100 mM EGTA and had resistances of 0.5-2 MΩ. […]
For experiments assessing voltage-dependence of drug inhibition, oocytes were initially voltage clamped at a holding potential of −40 mV or −90 mV and […] control application of ACh alone was delivered. […] Residual inhibition was evaluated with a subsequent application of ACh alone at the test potential, after a 5-min wash period.

[7] = target: α1β1δε mouse muscle receptors (Mus musculus, UniProt P02716+P04756+P09690+P20782); test: Oocyte electrophysiology, muscle receptor selectivity (Example 4); format: cell-based
Method: (§1) For electrophysiology, oocyte recordings were made with an oocyte amplifier (e.g., Warner Instruments, Hamden, Conn., No. OC-725C) and RC-8 recording chamber. Oocytes were placed in the recording chamber with a total volume of about 0.6 ml and perfused at room temperature by frog Ringer's solution (115 mM NaCl, 2.5 mM KCl, 10 mM HEPES pH 7.3, and 1.8 mM CaCl2) containing 1 µM atropine to inhibit potential muscarinic responses. A Mariotte flask filled with Ringer's solution was used to maintain a constant hydrostatic pressure for drug delivery and washes. Drugs were diluted in perfusion solution and loaded into a 2 ml loop at the terminus of the perfusion line. A bypass of the drug-loading loop allowed bath solution to flow continuously while the drug loop was loaded. The drug application was synchronized with data acquisition by using a 2-way electronic valve. The rate of bath solution exchange and drug application was preferably about 6 ml/min. Current electrodes were filled with a solution containing 250 mMCsCl, 250 mM CsF and 100 mM EGTA and had resistances of 0.5-2 MΩ. Voltage electrodes were filed with 3M KCl and have resistances of 1-3MΩ. Oocytes with resting membrane potentials more positive than −30 mV were not used.
(§2) Holding currents immediately before agonist application were subtracted from measurements of the peak response to agonist. […]

human α3β4 receptors = target: T2, human α3β4 receptors (Homo sapiens, UniProt P30926+P32297); test: Two-electrode voltage clamp, Xenopus oocytes expressing α3β4 receptors (Example 4); format: cell-based
T2 construct: expressed in transfected cells; host or cells: Xenopus laevis oocytes, cRNA injection

Swiss-Webster mice [8] = test: Cocaine interaction study, locomotor activity (Example 6); format: in vivo, mouse; details: 10 mg/kg ip + cocaine 20 mg/kg ip
human α3β2 receptors = target: T3, human α3β2 receptors (Homo sapiens, UniProt P17787+P32297); test: Two-electrode voltage clamp, Xenopus oocytes expressing α3β2 receptors (Example 4); format: cell-based
T3 construct: expressed in transfected cells; host or cells: Xenopus laevis oocytes, cRNA injection

nicotine receptors = test: Oocyte electrophysiology, recovery time course and agonist test, receptor subtype not specified (Example 4); format: cell-based, human
[9] = target: NMDA receptor subunits NR1 and NR2b (Homo sapiens, UniProt Q05586+Q13224); test: Oocytes coexpressing NMDA receptor subunits (Example 4); format: cell-based; details: 100 μM; reversible after a 5-min wash
Method: as §1, §2

[10] = target: hNET (norepinephrine transporter) (Homo sapiens, UniProt P23975); test: [125I]RTI-55 binding, HEK293-hNET membranes (Example 5); details: [125I]RTI-55 competition
Swiss-Webster mice [11] = test: Locomotor depression test, compound alone (Example 6); format: in vivo, mouse
human α7 receptors = target: T4, human α7 receptors (Homo sapiens, UniProt P36544); test: Two-electrode voltage clamp, Xenopus oocytes expressing α7 receptors (Example 4); format: cell-based
T4 construct: expressed in transfected cells; host or cells: Xenopus laevis oocytes, cRNA injection

[12] = target: hDAT (dopamine transporter) (Homo sapiens, UniProt Q01959); test: [125I]RTI-55 binding, HEK293-hDAT membranes (Example 5); details: [125I]RTI-55 competition
[13] = 0.1 mg/kg s.c., nicotine 3.6 mg/kg
[14] = after co-application of 10 μM with ACh

T4 sequence (P36544 23-502): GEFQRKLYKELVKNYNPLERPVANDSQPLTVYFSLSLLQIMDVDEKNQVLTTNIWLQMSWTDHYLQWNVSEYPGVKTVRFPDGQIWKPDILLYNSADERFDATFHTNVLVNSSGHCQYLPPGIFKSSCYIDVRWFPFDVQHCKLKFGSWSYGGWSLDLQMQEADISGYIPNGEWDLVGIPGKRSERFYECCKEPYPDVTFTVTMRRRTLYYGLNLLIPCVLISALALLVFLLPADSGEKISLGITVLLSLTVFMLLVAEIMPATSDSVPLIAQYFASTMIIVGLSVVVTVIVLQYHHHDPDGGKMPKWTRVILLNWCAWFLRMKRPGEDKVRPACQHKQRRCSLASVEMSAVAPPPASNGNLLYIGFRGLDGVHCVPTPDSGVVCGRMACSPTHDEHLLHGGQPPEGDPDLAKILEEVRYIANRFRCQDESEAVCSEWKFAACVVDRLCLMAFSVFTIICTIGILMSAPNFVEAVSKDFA
T1 sequence (P43681 29-627 limits assumed): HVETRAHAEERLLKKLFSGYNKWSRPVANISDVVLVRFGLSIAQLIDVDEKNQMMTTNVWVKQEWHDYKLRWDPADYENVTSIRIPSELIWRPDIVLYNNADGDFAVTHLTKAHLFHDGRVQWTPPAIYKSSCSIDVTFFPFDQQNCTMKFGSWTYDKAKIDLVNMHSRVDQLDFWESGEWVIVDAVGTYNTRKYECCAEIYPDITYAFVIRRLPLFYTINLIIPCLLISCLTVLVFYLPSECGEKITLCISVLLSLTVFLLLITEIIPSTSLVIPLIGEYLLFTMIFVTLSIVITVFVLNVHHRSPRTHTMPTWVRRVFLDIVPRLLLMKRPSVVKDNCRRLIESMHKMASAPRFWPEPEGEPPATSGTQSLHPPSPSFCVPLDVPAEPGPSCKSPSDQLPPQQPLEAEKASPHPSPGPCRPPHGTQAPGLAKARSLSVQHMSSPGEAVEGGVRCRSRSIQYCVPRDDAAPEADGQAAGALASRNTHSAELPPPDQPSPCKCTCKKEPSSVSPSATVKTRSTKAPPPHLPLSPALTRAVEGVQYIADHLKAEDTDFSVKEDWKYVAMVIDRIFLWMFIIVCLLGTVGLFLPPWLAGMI
T1 sequence (P17787 26-502): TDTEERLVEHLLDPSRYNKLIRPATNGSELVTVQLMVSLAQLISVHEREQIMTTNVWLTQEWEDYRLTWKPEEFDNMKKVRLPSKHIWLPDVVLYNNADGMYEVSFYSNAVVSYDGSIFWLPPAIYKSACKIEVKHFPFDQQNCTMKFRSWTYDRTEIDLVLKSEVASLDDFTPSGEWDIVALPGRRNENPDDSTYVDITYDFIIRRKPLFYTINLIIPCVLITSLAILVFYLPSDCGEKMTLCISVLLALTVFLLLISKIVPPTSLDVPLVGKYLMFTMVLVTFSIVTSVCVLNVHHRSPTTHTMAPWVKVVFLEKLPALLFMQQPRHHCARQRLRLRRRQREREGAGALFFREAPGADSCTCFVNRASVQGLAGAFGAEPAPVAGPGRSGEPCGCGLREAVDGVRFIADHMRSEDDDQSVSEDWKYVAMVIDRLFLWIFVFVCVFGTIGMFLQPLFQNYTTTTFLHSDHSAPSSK
T3 sequence (P32297 32-505): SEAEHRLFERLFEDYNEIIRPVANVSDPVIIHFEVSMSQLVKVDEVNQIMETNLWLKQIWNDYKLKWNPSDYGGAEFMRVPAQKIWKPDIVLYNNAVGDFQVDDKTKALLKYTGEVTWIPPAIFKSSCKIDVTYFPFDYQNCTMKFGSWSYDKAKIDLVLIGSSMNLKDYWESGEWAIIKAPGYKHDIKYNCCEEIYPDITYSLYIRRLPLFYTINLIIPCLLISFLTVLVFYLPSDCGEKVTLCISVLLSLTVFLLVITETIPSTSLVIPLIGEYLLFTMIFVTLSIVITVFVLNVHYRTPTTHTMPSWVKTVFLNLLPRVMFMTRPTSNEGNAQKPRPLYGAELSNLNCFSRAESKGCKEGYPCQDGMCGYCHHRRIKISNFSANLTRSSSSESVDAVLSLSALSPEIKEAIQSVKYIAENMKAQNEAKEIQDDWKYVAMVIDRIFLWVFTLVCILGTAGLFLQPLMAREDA
T3 sequence (P17787 26-502): as the sequence (P17787 26-502) above
T2 sequence (P32297 32-505): as the sequence (P32297 32-505) above
T2 sequence (P30926 22-498): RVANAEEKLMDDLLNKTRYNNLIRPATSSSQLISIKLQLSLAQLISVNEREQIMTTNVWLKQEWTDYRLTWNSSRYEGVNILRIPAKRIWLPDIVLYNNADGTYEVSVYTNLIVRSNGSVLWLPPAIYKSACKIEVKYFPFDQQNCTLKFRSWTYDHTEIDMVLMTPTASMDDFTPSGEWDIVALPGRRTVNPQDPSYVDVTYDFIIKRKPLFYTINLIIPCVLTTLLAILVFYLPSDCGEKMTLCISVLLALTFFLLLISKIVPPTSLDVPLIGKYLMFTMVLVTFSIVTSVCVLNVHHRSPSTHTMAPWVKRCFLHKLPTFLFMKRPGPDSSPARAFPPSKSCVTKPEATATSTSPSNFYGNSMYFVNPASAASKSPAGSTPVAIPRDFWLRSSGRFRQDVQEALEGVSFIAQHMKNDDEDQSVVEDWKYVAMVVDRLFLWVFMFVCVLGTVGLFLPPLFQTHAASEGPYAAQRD
Sequence of α1β1δε mouse muscle receptors (P04756 21-457): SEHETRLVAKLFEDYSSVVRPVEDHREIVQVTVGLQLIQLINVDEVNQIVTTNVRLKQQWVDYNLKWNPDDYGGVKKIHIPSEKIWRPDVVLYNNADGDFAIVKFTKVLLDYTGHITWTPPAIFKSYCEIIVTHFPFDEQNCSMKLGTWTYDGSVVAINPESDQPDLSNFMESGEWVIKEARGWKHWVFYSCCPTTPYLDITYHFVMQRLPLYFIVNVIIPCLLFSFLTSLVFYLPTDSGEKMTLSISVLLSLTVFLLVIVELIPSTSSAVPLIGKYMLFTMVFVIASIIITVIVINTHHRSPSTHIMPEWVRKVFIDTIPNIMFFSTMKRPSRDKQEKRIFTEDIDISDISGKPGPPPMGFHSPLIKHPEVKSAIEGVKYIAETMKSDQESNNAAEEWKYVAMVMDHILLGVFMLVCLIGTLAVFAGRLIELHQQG
Sequence of α1β1δε mouse muscle receptors (P09690 24-501): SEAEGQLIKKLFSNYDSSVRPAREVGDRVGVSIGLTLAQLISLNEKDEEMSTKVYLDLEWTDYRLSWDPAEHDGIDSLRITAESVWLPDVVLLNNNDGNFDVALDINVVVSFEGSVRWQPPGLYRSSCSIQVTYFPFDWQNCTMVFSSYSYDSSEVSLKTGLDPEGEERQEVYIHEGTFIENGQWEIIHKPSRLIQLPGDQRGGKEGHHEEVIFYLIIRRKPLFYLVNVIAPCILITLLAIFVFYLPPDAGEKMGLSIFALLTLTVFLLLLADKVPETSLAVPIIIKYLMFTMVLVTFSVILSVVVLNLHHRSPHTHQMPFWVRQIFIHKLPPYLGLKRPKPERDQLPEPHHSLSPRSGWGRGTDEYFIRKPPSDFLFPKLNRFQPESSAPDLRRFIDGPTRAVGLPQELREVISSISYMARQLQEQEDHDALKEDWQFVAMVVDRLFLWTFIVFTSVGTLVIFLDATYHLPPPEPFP
Sequence of α1β1δε mouse muscle receptors (P02716 25-520): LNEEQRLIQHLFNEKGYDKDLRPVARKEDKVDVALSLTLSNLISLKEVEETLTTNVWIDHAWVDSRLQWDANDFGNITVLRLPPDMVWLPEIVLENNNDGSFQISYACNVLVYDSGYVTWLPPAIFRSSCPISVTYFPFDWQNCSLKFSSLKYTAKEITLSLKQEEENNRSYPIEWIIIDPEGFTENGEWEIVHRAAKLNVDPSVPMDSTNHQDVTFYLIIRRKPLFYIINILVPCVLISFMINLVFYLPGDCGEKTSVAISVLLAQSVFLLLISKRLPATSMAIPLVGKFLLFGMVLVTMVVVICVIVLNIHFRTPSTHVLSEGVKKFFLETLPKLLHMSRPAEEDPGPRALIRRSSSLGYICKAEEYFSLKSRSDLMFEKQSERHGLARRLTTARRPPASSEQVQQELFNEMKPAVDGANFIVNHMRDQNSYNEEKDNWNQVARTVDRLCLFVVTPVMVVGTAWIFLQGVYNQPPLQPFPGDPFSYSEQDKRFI
Sequence of α1β1δε mouse muscle receptors (P20782 21-493): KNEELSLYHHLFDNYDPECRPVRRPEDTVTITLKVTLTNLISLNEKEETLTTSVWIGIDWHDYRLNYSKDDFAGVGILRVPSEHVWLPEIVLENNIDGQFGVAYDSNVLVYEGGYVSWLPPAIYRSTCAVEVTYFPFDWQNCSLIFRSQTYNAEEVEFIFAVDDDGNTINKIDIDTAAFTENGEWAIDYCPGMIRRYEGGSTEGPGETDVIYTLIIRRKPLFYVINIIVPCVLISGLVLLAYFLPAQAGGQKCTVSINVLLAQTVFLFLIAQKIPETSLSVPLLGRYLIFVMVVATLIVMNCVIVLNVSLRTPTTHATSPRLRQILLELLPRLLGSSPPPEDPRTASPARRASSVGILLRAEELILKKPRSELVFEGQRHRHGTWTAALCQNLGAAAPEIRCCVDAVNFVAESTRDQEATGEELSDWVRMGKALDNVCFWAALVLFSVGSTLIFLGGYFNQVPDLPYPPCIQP

Clc1cccc(Cl)c1N=C1NCCN1 [clonidine]
cases in which treatment is effective / success rate for motor and vocal tics (TS patients): 40%

CN[C@]1(C)[C@H]2CC[C@H](C2)C1(C)C [exo-R-mecamylamine, reference compound]
effectiveness of isomers compared, particularly center distance and vertical activity [1]: generally more effective at lower doses | plasma DA levels on sympathetic stimulation vs baseline ([2]; 2.2 Hz): significant increases in plasma DA levels | stimulation-induced increases in plasma NE levels vs saline ([2]; 2.2 Hz): significantly less | duration of seizure vs saline comparison group (Sprague-Dawley rats [3]; [13]): did not differ from their saline comparison group | nicotine-induced seizures (percentage of rats that seized) (Sprague-Dawley rats [3]): prevented nicotine-induced seizures in a dose-dependent manner | duration and severity of seizure vs saline comparison group (Sprague-Dawley rats [3]; nicotine 3.6 mg/kg): significantly different from their saline comparison groups | seizure latency vs saline control (Sprague-Dawley rats [3]; nicotine 3.6 mg/kg): significantly longer latency | stimulation-induced increases in MAP [4]: completely abolished | increases in heart rate (δ HR) vs saline-treated rats [4]: significantly lowered the increases in heart rate

CN[C@@]1(C)[C@@H]2CC[C@@H](C2)C1(C)C [exo-S-mecamylamine, exo-S-N,2,3,3-tetramethyl-bicycl-o-[2.1.1]heptan-2-amine hydrochloride]
spontaneous locomotor activity, total distance traveled (Sprague-Dawley rats [5]): signigicantly less locomotor depressant effects | affinity for binding site compared with cocaine [6]: lower than the affinity of cocaine | stimulation-induced increases in plasma NE levels vs saline ([2]; 2.2 Hz): significantly decreased stimulation-evoked plasma NE increases | stimulation-induced plasma EPI responses ([2]; 2.2 Hz): significant decrease in stimulation-induced plasma EPI responses | overall effectiveness on plasma CA and sympathetically-mediated cardiovascular responses ([2]; of the three forms): most effective in reducing plasma CA | voltage dependence of inhibition (human α4β2 receptors; 5 μM, -40 mV vs 90 mV [sic]): significant voltage dependence | residual inhibition: control ACh response 5 min after exposure (human α4β2 receptors; 5 min wash): greatest for β2-containing receptors | time constant of recovery, compared with α3β2 (human α4β2 receptors; [14]): similar | duration of seizure vs saline comparison group (Sprague-Dawley rats [3]; [13]): significantly different from their saline comparison groups | seizure latency vs saline comparison group (Sprague-Dawley rats [3]; [13]): significantly longer seizure latency | nicotine-induced seizures (percentage of rats that seized) (Sprague-Dawley rats [3]): prevented nicotine-induced seizures in a dose-dependent manner | duration and severity of seizure vs saline comparison group (Sprague-Dawley rats [3]; nicotine 3.6 mg/kg): significantly different from their saline comparison groups | seizure latency vs saline control (Sprague-Dawley rats [3]; nicotine 3.6 mg/kg): significantly longer latency | number of rats with nicotine-seizures compared with exo-R-mecamylamine (Sprague-Dawley rats [3]; lowest dose 0.1 mg/kg): fewer rats had nicotine-seizures | inhibition of muscle receptors after wash ([7]; 5-min wash): fully reversed | effect on muscle receptors ([7]; control ACh 3 μM): very little effect | voltage dependence of inhibition (human α3β4 receptors; 1 μM, -40 mV vs 90 mV [sic]): significant voltage dependence | residual inhibition: control ACh response 5 min after exposure (human α3β4 receptors; 5 min wash): marked decrease in subsequent control response to ACh | locomotion at 30 minutes vs saline/cocaine (Swiss-Webster mice [8]): significantly different from the result of cocaine alone | voltage dependence of inhibition (human α3β2 receptors; 5 μM, -40 mV vs 90 mV [sic]): significantly different responses | residual inhibition: control ACh response 5 min after exposure (human α3β2 receptors; 5 min wash): greatest for β2-containing receptors | time constant of recovery (human α3β2 receptors; [14]): about 33 min | initial inhibition (nicotine receptors; co-application of 10 μM and ACh at control concentration): greater than 50% | off-loading from some receptors (nicotine receptors; compared with exo-R-mecamylamine): slower than exo-R-mecamylamine | inhibition of response to 10 μM glutamate+10 μM glycine [9]: transient inhibition | stimulation-induced increases in MAP [4]: completely abolished | increases in heart rate (δ HR) vs saline-treated rats [4]: significantly lowered the increases in heart rate | potency rank, stimulation-induced pressor responses ([4]; of the three forms): most potent | affinity for binding site compared with cocaine [10]: lower than the affinity of cocaine | effect on locomotor activity in the last 30 minutes of testing (Swiss-Webster mice [11]; 1 and 3 mg/kg ip): Stimulant effects | dose producing one half of the maximal depressant activity (Swiss-Webster mice [11]; ip, 20 min before testing, maximal depression = 0 counts in 30 minutes): 8.5 mg/kg | voltage dependence of inhibition (human α7 receptors; 10 μM, -40 mV vs 90 mV [sic]): significantly different responses | residual inhibition: control ACh response 5 min after exposure (human α7 receptors; 5 min wash): least for α7 receptors | IC50 rank among receptor subtypes (human α7 receptors; control ACh 300 μM, -50 mV): least potent at inhibiting α7 receptors | affinity for binding site compared with cocaine [12]: lower than the affinity of cocaine

O=C(CCCN1CCC(O)(c2ccc(Cl)cc2)CC1)c1ccc(F)cc1 [haloperidol]
cases in which treatment is effective / success rate for motor and vocal tics (TS patients): about 70%
